Test [1] has as its system mouse psoriasis model induced by 5% IMQ. Briefly: Neutrophil infiltration (Ly6G+ cells, immunofluorescence) of mouse psoriasis model. It counts as in vivo. The conditions noted are these: 5% IMQ model.
The target of test [2] is T1, mTRPV3 (Mus musculus, UniProt Q8K424).
T1 construct: expressed in transfected cells
T1 sequence (Q8K424 1-791): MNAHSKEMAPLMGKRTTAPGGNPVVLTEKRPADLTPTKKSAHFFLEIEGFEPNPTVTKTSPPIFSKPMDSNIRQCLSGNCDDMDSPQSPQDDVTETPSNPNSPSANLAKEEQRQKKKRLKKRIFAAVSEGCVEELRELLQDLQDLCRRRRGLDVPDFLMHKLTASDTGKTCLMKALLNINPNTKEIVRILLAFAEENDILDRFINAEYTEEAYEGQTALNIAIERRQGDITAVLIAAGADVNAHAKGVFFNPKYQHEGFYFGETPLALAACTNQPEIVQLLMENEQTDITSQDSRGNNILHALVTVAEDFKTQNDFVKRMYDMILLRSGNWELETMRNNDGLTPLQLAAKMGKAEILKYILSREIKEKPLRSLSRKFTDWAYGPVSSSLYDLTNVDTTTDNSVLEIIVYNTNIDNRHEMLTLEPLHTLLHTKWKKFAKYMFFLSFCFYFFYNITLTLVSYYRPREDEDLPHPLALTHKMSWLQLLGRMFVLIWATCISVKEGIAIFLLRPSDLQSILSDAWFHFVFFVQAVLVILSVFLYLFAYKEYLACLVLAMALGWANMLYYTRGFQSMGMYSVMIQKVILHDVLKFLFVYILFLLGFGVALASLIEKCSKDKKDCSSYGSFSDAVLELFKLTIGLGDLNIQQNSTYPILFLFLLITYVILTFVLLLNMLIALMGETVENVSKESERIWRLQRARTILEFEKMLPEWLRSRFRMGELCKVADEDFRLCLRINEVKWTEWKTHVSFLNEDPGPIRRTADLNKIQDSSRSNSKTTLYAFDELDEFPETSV
Briefly: Intracellular calcium fluorescence (Fluo-4, FLIPR) in HEK-293 cells stably transfecting mTRPV3, 2-APB induced. The test is classed as cell-based. The conditions noted are these: Scutellarein 10 μM, 2-APB 300 μM, mTRPV3-HEK-293. As for the experimental part: mTRPV3 plasmids were donated by Professor Jie Zheng from UC Davis. Transfection steps were as follows: HEK-293 cells with a confluence ranging from 70% to 80% and a good growth state were seeded into T-60 small dishes the day before transfection, each small dish contained 4×10^5 cells, and the cells were cultured without penicillin/streptomycin overnight at 37° C. in 5% CO2. 10 μL of plasmids (plasmid concentration was 1000 ng/μL) were diluted with 250 μl of DMEM (article number: 12800017, Gibco), and meanwhile, 10 μL of Lipofectamine 2000 (article number: 11668027, Gibco) was diluted into 250 μL of DMEM. […] Monoclone cells were selected by a limiting dilution method: the screened cells were digested and counted, and seeded into a 96-well plate in sequence at densities of 10^4 cells/well, 10^3 cells/well, 10^2 cells/well, 10 cells/well, and 1 cell/well. Under a fluorescence microscope, wells of separate cells with green fluorescence were labeled, and cells amplified from the wells were HEK-293 cells stably transfecting the mTRPV3. […] The cell plate was placed in a preheated FLIPR® ^TETRA (Molecular Devices, Sunnyvale, Calif., USA) at 30° C., and excited at a wavelength of 488 nm, and fluorescence signals were continuously recorded at a sampling frequency of 1 second at a wavelength range of 515 nm to 575 nm. […]
In general terms: A change in cytosolic calcium serves as a functional read-out for many receptors and channels.

SMILES strings stand for the structures. Entries after “also recorded” stand apart in the source; their conditions may differ.

Turning to `O=c1cc(-c2ccc(O)cc2)oc2cc(O)c(O)c(O)c12` [Scutellarein], the neutrophil infiltration entry in test [1] was “obviously reduce”. The “inhibition of increase of intracellular calcium concentration (calcium influx) induced by 2-APB” value in test [2] is reported as “could inhibit increase of the intracellular calcium concentration; also recorded: obvious inhibitory effect”.
